From patent publication US20150236379A1, “ADDITIVES FOR GALVANIC CELLS” (ROCKWOOD LITHIUM GMBH, priority 2012, published 2015)
Read-outs that look alike come from different tables or passages of the source.

Assays:
[1] = Solubility in conventional battery solvents; format: physicochemical
Excerpt: This was not to be expected, since it is known that many Cs salts having large, weakly coordinating anions are relatively poorly soluble in water (A. Nadjafi, Microchim. Acta 1973, 689-696).
The abbreviation BOB stands for bis-(oxalato)borate (C4O8B)^−, BMB for bis-(malonato)borate (C6H4O8B)^−, NMP for N-methylpyrrolidone, EC for ethylene carbonate, DMC for dimethyl carbonate, EMC for ethyl methyl carbonate and PC for propylene carbonate.

[2] = Thermal stability, thermogravimetric experiment under argon flow; format: physicochemical
Description: In a 1-L round-bottom glass flask, 38.67 g boric acid and […] oxalic acid dihydrate were suspended in 121 g water. 102.9 g cesium carbonate was added in portions, with magnetic stirring (vigorous foaming due to CO2 generation). After the addition was complete, the white suspension was evaporated on a rotary evaporator, initially at 100° C. and 400 mbar. The colorless solid residue was then ground and subjected to final drying at 180° C. and 20 mbar for 3 h. • Yield: 197.3 g of colorless powder (97% of theoretical) • Cs content: 41.0% • […] ^11B=7.4 ppm (solution in DMSO-d6) • Thermal stability: 290° C. (onset of thermal decomposition in the thermogravimetric experiment under argon flow)

[3] = Cs content (FES) in filtered electrolyte solution after stirring with excess additive; format: physicochemical; settings: stirred 24 h, membrane filtered
Description: (§1) In an Ar-filled glove box, 10 g of an 11 wt.-% LiBOB solution in ethylene carbonate/ethylmethyl carbonate (1:1, wt./wt.) was mixed with 0.32 g CsBOB and magnetically stirred for 24 h. The suspension was then filter-clarified by membrane filtration ([…] PTFE). • Cs content (FES) in the electrolyte solution: 0.05 wt.-%
as §1, with “a 10 wt-% […]” for “an 11 wt.-% LiBOB”, “0.47” for “0.32”, “CsClO4” for “CsBOB”, “0.07” for “0.05”

[4] = Additive salt solubility in lithium conducting salt electrolyte solutions
[5] = cited from earlier work
[6] = supporting electrolyte LiBOB, 10% EC/EMC
[7] = supporting electrolyte LiPF6, 10% EC/EMC

Row | SMILES | Solubility ([1]; solvent EC/DMC (1:1)) | Solubility (Wt. %) ([1]; solvent EC/DMC (1:1)) | Solubility ([1]; solvent NMP) | Solubility (Wt. %) ([1]; solvent NMP) | Solubility ([1]; solvent PC) | Solubility (Wt. %) ([1]; solvent PC) | Thermal stability (onset of thermal decomposition) [2] | Cs content (FES) in the electrolyte solution ([3]; 11 wt.-% LiBOB in EC/EMC (1:1, wt./wt.)) | Additive Salt Solubility [4, 6] | Additive Salt Solubility (wt.-%) [4, 6] | Additive Salt Solubility [4, 7] | Additive Salt Solubility (wt.-%) [4, 7] | Cs content (FES) in the electrolyte solution ([3]; 10 wt-% LiPF5 in EC/EMC (1:1, wt./wt.)) | solubility in water ([5]; 0° C.) | solubility in water ([5]; 25° C.) | Solubility [1] | Solubility (Wt. %) [1]
1 | O=C1O[B-]2(OC1=O)OC(=O)C(=O)O2.[Cs+] [CsBOB, Cesium bis(oxalato)borate] | 70 mM | 1.8 Wt. % | 270 mM | 7.9 Wt. % | 60 mM | 1.5 Wt. % | 290 °C | 0.05 wt.-% | 4 mM | 0.12 wt.-% | 40 mM | 1.2 wt.-% | – | – | – | – | –
2 | [Cs+].[O-][Cl+3]([O-])([O-])[O-] [CsClO4, cesium perchlorate] | – | – | – | – | 70 mM | 1.3 Wt. % | – | – | 5 mM | 0.12 wt.-% | 40 mM | 0.9 wt.-% | 0.07 wt.-% | 0.8 g/100 mL | 1.97 g/100 mL | – | –
3 | O=C1CC(=O)O[B-]2(O1)OC(=O)CC(=O)O2.[Cs+] [CsBMB] | – | – | – | – | – | – | – | – | – | – | – | – | – | – | – | 50 mM | 1.8 Wt. %
4 | O=C1O[B-]2(OC1=O)OC(=O)C(=O)O2.[Rb+] [RbBOB] | – | – | – | – | – | – | – | – | 1 mM | 0.03 wt.-% | 40 mM | 1.2 wt.-% | – | – | – | 30 mM | 0.64 Wt. %
